Source: ChEMBL document CHEMBL5335818, “A MassQL-Integrated Molecular Networking Approach for the Discovery and Substructure Annotation of Bioactive Cyclic Peptides” (J Nat Prod, 2024)
Active and inactive are the calls of the source. No cut-off for these calls is given here.

Experiments:
[1] = target: Muscarinic acetylcholine receptor M3 (Homo sapiens) (UniProt P20309); assay: Antagonist activity at endogenous muscarinic M3 receptor in HEK293 cells assessed as inhibition of carbachol-induced cell activation at 1 to 31.6 uM incubated for 16 mins by label-free DMR assay; type: functional, cell-based; conditions: dose 1-31.6 µM
Sequence of Muscarinic acetylcholine receptor M3 (Homo sapiens) (P20309 whole entry, looked up): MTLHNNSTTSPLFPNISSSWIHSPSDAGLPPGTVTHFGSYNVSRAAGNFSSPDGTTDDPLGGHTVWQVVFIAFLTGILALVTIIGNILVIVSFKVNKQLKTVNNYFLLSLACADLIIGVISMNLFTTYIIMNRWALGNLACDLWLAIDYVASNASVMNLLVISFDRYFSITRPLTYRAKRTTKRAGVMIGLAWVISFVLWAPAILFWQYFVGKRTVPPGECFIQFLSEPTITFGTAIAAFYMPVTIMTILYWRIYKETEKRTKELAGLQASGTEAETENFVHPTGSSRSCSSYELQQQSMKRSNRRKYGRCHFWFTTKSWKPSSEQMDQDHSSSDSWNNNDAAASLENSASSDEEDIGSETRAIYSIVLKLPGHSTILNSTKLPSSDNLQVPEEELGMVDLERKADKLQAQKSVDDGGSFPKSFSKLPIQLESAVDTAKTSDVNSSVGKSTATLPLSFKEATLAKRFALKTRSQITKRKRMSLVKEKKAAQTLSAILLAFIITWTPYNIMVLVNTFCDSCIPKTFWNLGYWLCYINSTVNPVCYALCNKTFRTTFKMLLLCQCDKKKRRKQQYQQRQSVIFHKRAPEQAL

[2] = target: Vasopressin V1a receptor (Homo sapiens) (UniProt P37288); assay: Activation of V1A receptor (unknown origin) mediated signaling transfected in HEK293 cells at 0.1 to 31.6 uM incubated for 16 mins by label-free DMR assay; type: functional, cell-based; conditions: dose 0.1-31.6 µM
Sequence of Vasopressin V1a receptor (Homo sapiens) (P37288 whole entry, looked up): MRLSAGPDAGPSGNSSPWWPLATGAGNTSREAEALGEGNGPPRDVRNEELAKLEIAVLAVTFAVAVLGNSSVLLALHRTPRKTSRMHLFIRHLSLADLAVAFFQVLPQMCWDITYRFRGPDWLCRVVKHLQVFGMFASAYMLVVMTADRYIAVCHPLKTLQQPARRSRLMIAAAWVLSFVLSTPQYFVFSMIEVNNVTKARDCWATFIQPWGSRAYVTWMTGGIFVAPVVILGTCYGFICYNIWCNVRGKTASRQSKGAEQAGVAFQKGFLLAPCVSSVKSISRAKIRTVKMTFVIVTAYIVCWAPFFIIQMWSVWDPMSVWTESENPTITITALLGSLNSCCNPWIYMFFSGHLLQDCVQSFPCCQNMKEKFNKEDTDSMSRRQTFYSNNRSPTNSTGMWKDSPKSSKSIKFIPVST

[3] = target: Vasopressin V1a receptor (Homo sapiens) (UniProt P37288); assay: Antagonist activity at V1A receptor (unknown origin) transfected in HEK293 cells assessed as inhibition of AVP-induced cell activation at 1 to 31.6 uM incubated for 16 mins by label-free DMR assay; type: functional, cell-based; conditions: filed as antagonist, dose 1-31.6 µM
[4] = target: Vasopressin V1a receptor (Homo sapiens) (UniProt P37288); assay: Activation of endogenous V1A receptor signaling in HEK293 cells at 0.1 to 31.6 uM incubated for 16 mins by label-free DMR assay; type: functional, cell-based; conditions: dose 0.1-31.6 µM
[5] = target: Vasopressin V1a receptor (Homo sapiens) (UniProt P37288); assay: Antagonist activity at V1A receptor (unknown origin) transfected in HEK293 cells assessed as inhibition of AVP-induced cell activation at 31.6 uM incubated for 16 mins by label-free DMR assay relative to control; type: functional, cell-based
[6] = target: Vasopressin V1a receptor (Homo sapiens) (UniProt P37288); assay: Antagonist activity at V1A receptor (unknown origin) assessed as reduction in AVP-induced V1A receptor signaling; type: functional

Row | Activity [1] | Activity [2] | Activity [3] | Activity [4] | inhibition [5] | Activity ([6]; filed as antagonist) | Activity [6] | SMILES
1 | inactive | inactive | Active | inactive | 22% | Active |  | CC(C)[C@@H]1NC(=O)[C@@H]2CCCN2C(=O)[C@H](Cc2ccoc2)NC(=O)[C@H](Cc2ccoc2)N(C)C1=O
2 |  |  |  |  |  |  | inactive | CC(C)C[C@@H]1NC(=O)[C@H](Cc2ccoc2)N(C)C(=O)[C@H](C(C)C)NC(=O)[C@H](Cc2ccoc2)N(C)C1=O
3 |  |  |  |  |  |  | inactive | CC(C)C[C@@H]1NC(=O)[C@H](Cc2ccoc2)N(C)C(=O)[C@H](C(C)C)NC(=O)[C@@H]2CCCN2C1=O
